Assay results from patent US9938279B2, “Method for treating disease or condition susceptible to amelioration by AMPK activators and compounds of formula which are useful to activate AMP-activated protein kinase (AMPK)” (ENERGENESIS BIOMEDICAL CO., LTD, priority 2013, dated 2018).

Columns and labels:
[1] = tested on: AMPK; assay: AMPK activation assay (western blot phospho-AMPK Thr172) in C2C12; type: cell-based, mouse; settings: C2C12 cells, 30 min treatment
Procedure: (§1) Effects of compounds on AMPK activation were analyzed in mouse muscle cell C2C12, mouse fibroblast 3T3-L1 and human hepatocyte Hep G2. Those cell lines were cultured in high-glucose Dulbecco's modified Eagle's medium (DMEM) containing 10% fetal bovine serum (FBS), 4 mM L-glutamine, 2 mM sodium pyruvate and 1% penicillin/streptomycin (Invitrogen GibcoBRL, Carlsbad, Calif., USA) at 37° C. under 5% CO2. Cells were plated at 3×10^5 per well (6-well plate). 24 h after plating, cells were treated with indicated compounds for 30 min followed by cell lysis and western blot analysis. Equal amount of protein were separated by SDS-PAGE and then electroblotted on to PVDF membranes. Membranes were blocked with 3% BSA in PBS for 60 min and incubated with anti-phospho-AMPK (Thr172) antibody (1:2,000, Cell signaling), anti-AMPK antibody (1:2,000, Cell signaling), anti-Glut4 antibody (1:1,000, Millipore) or anti-actin antibody (1:5,000; Chemicon International) at 4° C. overnight followed by the corresponding secondary antibody for 1 h at room temperature (RT). Immunoreactive bands were detected by enhanced chemiluminescence (ECL; Pierce, Rockford, Ill., USA) and recorded using Kodakfilm (Rochester, N.Y., USA). The detected signals were scanned and then quantified by using TotalLab Quant software (TotalLab).

[2] = tested on: AMPK; assay: AMPK activation assay (western blot phospho-AMPK Thr172) in 3T3-L1; type: cell-based, mouse; settings: 3T3-L1 cells, 30 min treatment
Procedure: as §1

[3] = tested on: AMPK; assay: AMPK activation assay (western blot phospho-AMPK Thr172) in Hep G2; type: cell-based, human; settings: Hep G2 cells, 30 min treatment
Procedure: as §1

Row | Compound | AMPK activation (% to control) C2C12 ([1]; 1 microM) | AMPK activation (% to control) C2C12 ([1]; 10 microM) | AMPK activation (% to control) C2C12 ([1]; 100 microM) | AMPK activation (% to control) C2C12 ([1]; 200 microM) | AMPK activation (% to control) 3T3-L1 ([2]; 1 microM) | AMPK activation (% to control) 3T3-L1 ([2]; 10 microM) | AMPK activation (% to control) 3T3-L1 ([2]; 100 microM) | AMPK activation (% to control) 3T3-L1 ([2]; 200 microM) | AMPK activation (% to control) Hep G2 ([3]; 1 microM) | AMPK activation (% to control) Hep G2 ([3]; 10 microM) | AMPK activation (% to control) Hep G2 ([3]; 100 microM) | AMPK activation (% to control) Hep G2 ([3]; 200 microM)
1 | Clc1cccc(Nc2ncnc3nc[nH]c23)c1 [6-(3-chloroanilino)purine] | 108 % to control | 118 % to control | 186 % to control | 307 % to control | 116 % to control | 130 % to control | 217 % to control | 301 % to control | 106 % to control | 109 % to control | 212 % to control | 319 % to control
2 | Nc1nc(NCc2ccccc2)nc2nc[nH]c12 [Example 2-benzylamino-6-aminopurine, 2-benzylamino-6-aminopurine] | 110 % to control | 128 % to control | 259 % to control | 312 % to control | 119 % to control | 147 % to control | 217 % to control | 308 % to control | 105 % to control | 116 % to control | 235 % to control | 364 % to control
3 | O=C1CCNC(=O)N1 [5,6-dihydrouracil] | 108 % to control | 114 % to control | 207 % to control | 326 % to control | 116 % to control | 159 % to control | 268 % to control | 341 % to control | 120 % to control | 167 % to control | 274 % to control | 360 % to control
4 | CC(C)CCNc1nc(N)nc2nc[nH]c12 [Example 2-amino-6-isopentylaminopurine, 2-amino-6-isopentylaminopurine] | 104 % to control | 114 % to control | 238 % to control | 305 % to control | 110 % to control | 169 % to control | 271 % to control | 361 % to control | 117 % to control | 174 % to control | 250 % to control | 341 % to control
5 | Nc1nc(F)nc2nc[nH]c12 [Example 2-fluoroadenine, 2-fluoroadenine] | 102 % to control | 112 % to control | 213 % to control | 303 % to control | 114 % to control | 165 % to control | 291 % to control | 323 % to control | 117 % to control | 180 % to control | 259 % to control | 315 % to control
6 | COc1cccc(CNc2nc(N)nc3nc[nH]c23)c1OC [2-amino-6-(2,3-dimethoxybenzylamino)purine] | 106 % to control | 144 % to control | 263 % to control | 334 % to control | 118 % to control | 156 % to control | 250 % to control | 347 % to control | 115 % to control | 127 % to control | 229 % to control | 318 % to control
7 | O=c1cn[nH]c(=O)[nH]1 [Example 6-azauracil, 6-azauracil] | 109 % to control | 109 % to control | 197 % to control | 284 % to control | 109 % to control | 115 % to control | 185 % to control | 288 % to control | 108 % to control | 124 % to control | 199 % to control | 273 % to control
8 | Nc1cc[nH]c(=O)n1 [Cytosine] | 119 % to control | 158 % to control | 253 % to control | 361 % to control | 117 % to control | 127 % to control | – | 310 % to control | 117 % to control | 164 % to control | 281 % to control | 359 % to control
9 | O=c1[nH]cc(F)c(=O)[nH]1 [Example 5-fluorouracil, 5-fluorouracil] | 105 % to control | 105 % to control | 224 % to control | 318 % to control | 108 % to control | 113 % to control | 248 % to control | 322 % to control | 110 % to control | 134 % to control | 237 % to control | 319 % to control
10 | Oc1nc(S)c2[nH]cnc2n1 [Example 2-hydroxy-6-mercaptopurine, 2-hydroxy-6-mercaptopurine] | 104 % to control | 109 % to control | 198 % to control | 251 % to control | 118 % to control | 122 % to control | 210 % to control | 277 % to control | 105 % to control | 108 % to control | 204 % to control | 222 % to control
11 | Nc1nc(Br)nc2nc[nH]c12 [Example 2-bromoadenine, 2-bromoadenine] | 116 % to control | 172 % to control | 263 % to control | 349 % to control | 119 % to control | 188 % to control | 277 % to control | 361 % to control | 113 % to control | 190 % to control | 253 % to control | 354 % to control
12 | Oc1nc(O)c2[nH]cnc2n1 [2,6-dihydroxypurine] | 105 % to control | 115 % to control | 231 % to control | 347 % to control | 109 % to control | 132 % to control | 205 % to control | 361 % to control | 114 % to control | 139 % to control | 198 % to control | 302 % to control
